Measured values reported in ChEMBL document CHEMBL1201862, “PubChem BioAssay data set” (2004).
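Grown in 96-well plates, cells were treated for 48 hours with each compound at five concentrations. Insufficient inhibition: endpoint recorded as highest concentration tested. Abbreviation: GI50, concentration required for 50% inhibition of growth.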 Active and inactive are the calls of the source. Cut-off read from the data, not from the text of the source: active = GI50 up to about 1.1 µM and inactive = higher.

Experiments:
Test in all cases: NCI-60 cell line screen, 48 h
[1] = system: DU-145
[2] = system: 786-0
[3] = system: M14
[4] = system: LOX IMVI
[5] = system: PC-3
[6] = system: A549
[7] = system: Hs-578T
[8] = system: K562
[9] = system: UO-31
[10] = system: SK-MEL-28
[11] = system: SK-MEL-5
[12] = system: HCT-116
[13] = system: SF-295
[14] = system: BT-549
[15] = system: RXF 393
[16] = system: UACC-62
[17] = system: NCI/ADR-RES
[18] = system: SK-MEL-2
[19] = system: MDA-MB-435
[20] = system: HL-60
[21] = system: U-251
[22] = system: HT-29
[23] = system: TK-10
[24] = system: NCI-H522
[25] = system: Malme-3M
[26] = system: SNB-75
[27] = system: KM12
[28] = system: CAKI-1
[29] = system: OVCAR-3
[30] = system: SN12C
[31] = system: MDA-MB-231
[32] = system: OVCAR-8
[33] = system: OVCAR-5
[34] = system: T47D
[35] = system: SR
[36] = system: NCI-H460
[37] = system: A498
[38] = system: ACHN
[39] = system: NCI-H226
[40] = system: HCT-15
[41] = system: UACC-257
[42] = system: HOP-62
[43] = system: HOP-92
[44] = system: SF-268
[45] = system: NCI-H23
[46] = system: SK-OV-3
[47] = system: SW-620
[48] = system: COLO 205
[49] = system: MOLT-4
[50] = system: MCF7
[51] = system: IGROV-1
[52] = system: OVCAR-4
[53] = system: SF-539
[54] = system: SNB-19
[55] = system: EKVX
[56] = system: HCC 2998
[57] = system: RPMI-8226
[58] = system: MDA-N

Measured: GI50

CC(=O)OCC1OC(n2nc(Cc3ccccc3)c(=S)[nH]c2=S)C(OC(C)=O)C(OC(C)=O)C1OC(C)=O (stereo not given)
inactive: [1] 25.4 µM | [2] 35.2 µM | [3] 19.4 µM | [4] 20.6 µM | [5] 41.1 µM | [6] 84.1 µM | [7] 20.2 µM | [8] 26.9 µM | [9] 4.9 µM | [10] 42.8 µM | [11] 82 µM | [12] 21.3 µM | [13] 43.2 µM | [14] 19.6 µM | [15] 22.9 µM | [16] 18.5 µM | [17] > 100 µM | [18] 17.7 µM | [19] 18.1 µM | [21] 22.1 µM | [22] 41.8 µM | [23] 57.8 µM | [24] 21.4 µM | [25] 31.6 µM | [26] 20.6 µM | [27] 20.5 µM | [28] 30.7 µM | [29] 18.7 µM | [30] 21.5 µM | [31] 14.7 µM | [32] 23.6 µM | [33] > 100 µM | [34] 24.3 µM | [35] 31.2 µM | [36] 69 µM | [37] 32.1 µM | [38] > 100 µM | [39] 54.1 µM | [41] 18.7 µM | [42] 22 µM | [43] 20.4 µM | [44] 21.6 µM | [45] 20.3 µM | [46] 50.7 µM | [47] 30 µM | [48] 89.7 µM | [49] 23.2 µM | [50] 27.7 µM | [51] 25 µM | [52] 21.3 µM | [53] 24.9 µM | [54] 27.7 µM
19.4 µM: [40]
active: [20] 0.583 µM

Cc1ccc(/N=C2/S/C(=C3/CCC=C3N3CCOCC3)N(c3ccc(Cl)cc3)/C2=N/c2ccc(C)cc2)cc1
> 100 µM: [40]
inactive: [55] > 100 µM | [2] > 100 µM | [3] > 100 µM | [5] > 100 µM | [6] > 100 µM | [7] > 100 µM | [8] > 100 µM | [56] > 100 µM | [9] > 100 µM | [10] > 100 µM | [11] > 100 µM | [12] > 100 µM | [57] > 100 µM | [14] > 100 µM | [15] > 100 µM | [16] > 100 µM | [18] > 100 µM | [20] > 100 µM | [21] > 100 µM | [22] > 100 µM | [23] > 100 µM | [25] > 100 µM | [26] > 100 µM | [27] > 100 µM | [30] > 100 µM | [31] > 100 µM | [32] > 100 µM | [33] > 100 µM | [34] > 100 µM | [35] > 100 µM | [36] > 100 µM | [37] > 100 µM | [38] > 100 µM | [39] > 100 µM | [41] > 100 µM | [42] > 100 µM | [43] > 100 µM | [45] > 100 µM | [58] > 100 µM | [47] > 100 µM | [48] > 100 µM | [49] > 100 µM | [50] > 100 µM | [51] > 100 µM | [54] > 100 µM
